Results taken from ChEMBL document CHEMBL4138123, “Design, synthesis and biological evaluation of novel pyrazolochalcones as potential modulators of PI3K/Akt/mTOR pathway and inducers of apoptosis in breast cancer cells” (Eur J Med Chem, 2017).

Experiments:
[1] = system: SNB-19; assay: Cytotoxicity against human SNB19 cells assessed as growth inhibition after 48 hrs by sulforhodamine B assay; type: functional; conditions: SNB-19, 48 h; for CC50: read-out: LC50 (the source's name)
[2] = system: U-251; assay: Cytotoxicity against human U251 cells assessed as growth inhibition after 48 hrs by sulforhodamine B assay; type: functional; conditions: U-251, 48 h
[3] = system: A498; assay: Cytotoxicity against human A498 cells assessed as growth inhibition after 48 hrs by sulforhodamine B assay; type: functional; conditions: A498, 48 h
[4] = system: UO-31; assay: Cytotoxicity against human UO31 cells assessed as growth inhibition after 48 hrs by sulforhodamine B assay; type: functional; conditions: UO-31, 48 h
[5] = system: MCF7; assay: Cytotoxicity against human MCF7 cells assessed as growth inhibition after 48 hrs by MTT assay; type: functional, cell-based; conditions: MCF7, 48 h
[6] = system: NCI/ADR-RES; assay: Cytotoxicity against human NCI/ADR-RES cells assessed as cell growth at 0.01 uM after 48 hrs by sulforhodamine B assay relative to control; type: functional; conditions: read-out: Activity
[7] = system: KM12; assay: Cytotoxicity against human KM12 cells assessed as cell growth at 0.01 uM after 48 hrs by sulforhodamine B assay relative to control; type: functional; conditions: KM12, 48 h, read-out: Activity
[8] = system: NCI-H522; assay: Cytotoxicity against human NCI-H522 cells assessed as cell growth at 0.01 uM after 48 hrs by sulforhodamine B assay relative to control; type: functional; conditions: NCI-H522, 48 h, read-out: Activity
[9] = system: NCI-H460; assay: Cytotoxicity against human NCI-H460 cells assessed as cell growth at 0.01 uM after 48 hrs by sulforhodamine B assay relative to control; type: functional; conditions: NCI-H460, 48 h, read-out: Activity
[10] = system: NCI-H23; assay: Cytotoxicity against human NCI-H23 cells assessed as cell growth at 0.01 uM after 48 hrs by sulforhodamine B assay relative to control; type: functional; conditions: NCI-H23, 48 h, read-out: Activity
[11] = system: NCI-H226; assay: Cytotoxicity against human NCI-H226 cells assessed as cell growth at 0.01 uM after 48 hrs by sulforhodamine B assay relative to control; type: functional; conditions: NCI-H226, 48 h, read-out: Activity
[12] = system: HOP-62; assay: Cytotoxicity against human HOP62 cells assessed as cell growth at 0.01 uM after 48 hrs by sulforhodamine B assay relative to control; type: functional; conditions: HOP-62, 48 h, read-out: Activity
[13] = system: A549; assay: Cytotoxicity against human A549/ATCC cells assessed as cell growth at 0.01 uM after 48 hrs by sulforhodamine B assay relative to control; type: functional; conditions: A549, 48 h, read-out: Activity
[14] = system: SR; assay: Cytotoxicity against human SR cells assessed as cell growth at 0.01 uM after 48 hrs by sulforhodamine B assay relative to control; type: functional; conditions: read-out: Activity
[15] = system: TK-10; assay: Cytotoxicity against human TK10 cells assessed as cell growth at 0.01 uM after 48 hrs by sulforhodamine B assay relative to control; type: functional; conditions: TK-10, 48 h, read-out: Activity
[16] = system: Hs-578T; assay: Cytotoxicity against human Hs 578T cells assessed as cell growth at 0.01 uM after 48 hrs by sulforhodamine B assay relative to control; type: functional; conditions: read-out: Activity
[17] = system: CCRF-CEM; assay: Cytotoxicity against human CCRF-CEM cells assessed as cell growth at 0.1 uM after 48 hrs by sulforhodamine B assay relative to control; type: functional; conditions: read-out: Activity
[18] = system: NCI-H23; assay: Cytotoxicity against human NCI-H23 cells assessed as cell growth at 0.1 uM after 48 hrs by sulforhodamine B assay relative to control; type: functional; conditions: NCI-H23, 48 h, read-out: Activity
[19] = system: KM12; assay: Cytotoxicity against human KM12 cells assessed as cell growth at 0.1 uM after 48 hrs by sulforhodamine B assay relative to control; type: functional; conditions: KM12, 48 h, read-out: Activity
[20] = system: SF-268; assay: Cytotoxicity against human SF268 cells assessed as cell growth at 0.1 uM after 48 hrs by sulforhodamine B assay relative to control; type: functional; conditions: SF-268, 48 h, read-out: Activity
[21] = system: Malme-3M; assay: Cytotoxicity against human MALME-3M cells assessed as cell growth at 0.1 uM after 48 hrs by sulforhodamine B assay relative to control; type: functional; conditions: read-out: Activity
[22] = system: MDA-MB-435; assay: Cytotoxicity against human MDA-MB-435 cells assessed as cell growth at 0.1 uM after 48 hrs by sulforhodamine B assay relative to control; type: functional; conditions: MDA-MB-435, 48 h, read-out: Activity
[23] = system: UACC-62; assay: Cytotoxicity against human UACC62 cells assessed as cell growth at 0.1 uM after 48 hrs by sulforhodamine B assay relative to control; type: functional; conditions: UACC-62, 48 h, read-out: Activity
[24] = system: NCI/ADR-RES; assay: Cytotoxicity against human NCI/ADR-RES cells assessed as cell growth at 0.1 uM after 48 hrs by sulforhodamine B assay relative to control; type: functional; conditions: read-out: Activity
[25] = system: MDA-MB-231; assay: Cytotoxicity against human MDA-MB-231 cells assessed as cell growth at 0.1 uM after 48 hrs by sulforhodamine B assay relative to control; type: functional; conditions: MDA-MB-231, 48 h, read-out: Activity
[26] = system: K562; assay: Cytotoxicity against human K562 cells assessed as cell growth at 1 uM after 48 hrs by sulforhodamine B assay relative to control; type: functional; conditions: K562, 48 h, read-out: Activity
[27] = system: A549; assay: Cytotoxicity against human A549/ATCC cells assessed as cell growth at 1 uM after 48 hrs by sulforhodamine B assay relative to control; type: functional; conditions: A549, 48 h, read-out: Activity
[28] = system: UACC-62; assay: Cytotoxicity against human UACC62 cells assessed as cell growth at 1 uM after 48 hrs by sulforhodamine B assay relative to control; type: functional; conditions: UACC-62, 48 h, read-out: Activity
[29] = system: PC-3; assay: Cytotoxicity against human PC3 cells assessed as cell growth at 1 uM after 48 hrs by sulforhodamine B assay relative to control; type: functional; conditions: PC-3, 48 h, read-out: Activity
[30] = system: DU-145; assay: Cytotoxicity against human DU145 cells assessed as cell growth at 1 uM after 48 hrs by sulforhodamine B assay relative to control; type: functional; conditions: DU-145, 48 h, read-out: Activity
[31] = system: CCRF-CEM; assay: Cytotoxicity against human CCRF-CEM cells assessed as cell growth at 10 uM after 48 hrs by sulforhodamine B assay relative to control; type: functional; conditions: read-out: Activity
[32] = system: SR; assay: Cytotoxicity against human SR cells assessed as cell growth at 10 uM after 48 hrs by sulforhodamine B assay relative to control; type: functional; conditions: read-out: Activity
[33] = system: SF-268; assay: Cytotoxicity against human SF268 cells assessed as cell growth at 10 uM after 48 hrs by sulforhodamine B assay relative to control; type: functional; conditions: SF-268, 48 h, read-out: Activity
[34] = system: MDA-MB-231; assay: Cytotoxicity against human MDA-MB-231 cells assessed as cell growth at 10 uM after 48 hrs by sulforhodamine B assay relative to control; type: functional; conditions: MDA-MB-231, 48 h, read-out: Activity
[35] = system: HOP-62; assay: Cytotoxicity against human HOP62 cells assessed as cell growth at 100 uM after 48 hrs by sulforhodamine B assay relative to control; type: functional; conditions: HOP-62, 48 h, read-out: Activity
[36] = system: KM12; assay: Cytotoxicity against human KM12 cells assessed as cell growth at 100 uM after 48 hrs by sulforhodamine B assay relative to control; type: functional; conditions: KM12, 48 h, read-out: Activity
[37] = system: A498; assay: Cytotoxicity against human A498 cells assessed as cell growth at 100 uM after 48 hrs by sulforhodamine B assay relative to control; type: functional; conditions: A498, 48 h, read-out: Activity

COc1ccc(-c2cc(/C=C/C(=O)c3ccc(OC)c(OC)c3)[nH]n2)cc1
GI50 [1]: 1.88 µM | TGI [1]: 5.28 µM | CC50 [1]: 19.6 µM | GI50 [2]: 1.11 µM | LC50 [2]: 4.97 µM | TGI [2]: 2.34 µM | GI50 [3]: 1.42 µM | LC50 [3]: 8.87 µM | TGI [3]: 3.55 µM | GI50 [4]: 1.17 µM | LC50 [4]: 5.1 µM | TGI [4]: 2.44 µM | IC50 [5]: 0.5 µM | growth at 0.01 µM [6]: 102% | growth at 0.01 µM [7]: 105% | growth at 0.01 µM [8]: 102% | growth at 0.01 µM [9]: 100% | growth at 0.01 µM [10]: 100% | growth at 0.01 µM [11]: 83% | growth at 0.01 µM [12]: 97% | growth at 0.01 µM [13]: 93% | growth at 0.01 µM [14]: 100% | growth at 0.01 µM [15]: 100% | growth at 0.01 µM [16]: 96% | growth at 0.1 µM [17]: 97% | growth at 0.1 µM [18]: 101% | growth at 0.1 µM [19]: 103% | growth at 0.1 µM [20]: 99% | growth at 0.1 µM [21]: 89% | growth at 0.1 µM [22]: 95% | growth at 0.1 µM [23]: 93% | growth at 0.1 µM [24]: 107% | growth at 0.1 µM [25]: 91% | growth at 1 µM [26]: 56% | growth at 1 µM [27]: 77% | growth at 1 µM [28]: 85% | growth at 1 µM [29]: 71% | growth at 1 µM [30]: 74% | growth at 10 µM [31]: -39% | growth at 10 µM [32]: -29% | growth at 10 µM [33]: -40% | growth at 10 µM [34]: -17% | growth at 100 µM [35]: -71% | growth at 100 µM [36]: -79% | growth at 100 µM [37]: -90%

COc1ccc(C(=O)/C=C/c2cc(-c3cc(OC)c(OC)c(OC)c3)n[nH]2)cc1OC
TGI [1]: 3.01 µM | CC50 [1]: 6.36 µM | LC50 [2]: 4.99 µM | TGI [2]: 2.48 µM | LC50 [3]: 6 µM | TGI [3]: 2.98 µM | LC50 [4]: 5.17 µM | TGI [4]: 2.57 µM | IC50 [5]: 0.51 µM | growth at 0.01 µM [6]: 99% | growth at 0.01 µM [7]: 97% | growth at 0.01 µM [8]: 83% | growth at 0.01 µM [9]: 103% | growth at 0.01 µM [10]: 93% | growth at 0.01 µM [11]: 98% | growth at 0.01 µM [12]: 101% | growth at 0.01 µM [13]: 98% | growth at 0.01 µM [14]: 100% | growth at 0.01 µM [15]: 85% | growth at 0.01 µM [16]: 98% | growth at 0.1 µM [17]: 94% | growth at 0.1 µM [18]: 94% | growth at 0.1 µM [19]: 92% | growth at 0.1 µM [20]: 89% | growth at 0.1 µM [21]: 92% | growth at 0.1 µM [22]: 92% | growth at 0.1 µM [23]: 95% | growth at 0.1 µM [24]: 95% | growth at 0.1 µM [25]: 101% | growth at 1 µM [26]: 75% | growth at 1 µM [27]: 84% | growth at 1 µM [28]: 95% | growth at 1 µM [29]: 71% | growth at 1 µM [30]: 32% | growth at 10 µM [31]: -26% | growth at 10 µM [32]: 2% | growth at 10 µM [33]: -60% | growth at 10 µM [34]: -82% | growth at 100 µM [35]: -98% | growth at 100 µM [36]: -75% | growth at 100 µM [37]: -96%
